Values joined by “and” are separate entries in the source; they are usually repeats but may differ in a detail not shown here. Identical values can stand only once. “Also recorded” adds a separate entry of the source. Like-named read-outs stand apart in the source and are kept apart here.
Assays:
[1] = molecular target: sortase (cleavage of sorting signals at the LPXTG motif) (Staphylococcus aureus, UniProt Q2FV99); type: cell-based, S. aureus OS2
[2] = molecular target: SrtADN (Staphylococcus aureus, UniProt Q2FV99); type: biochemical, S. aureus
[3] = molecular target: SrtBΔN (Staphylococcus aureus, UniProt Q2FZE3, E55A/N120I/R216K); type: biochemical, S. aureus; settings: for SrtBΔN cleavage of NPQTN peptides: incubation of purified enzyme with inhibitor
[4] = system: Sec-dependent export of P1 precursor (SecA); type: cell-based, S. aureus OS2
[5] = system: staphylococci; type: cell-based, S. aureus OS2
[6] = molecular target: sortase (Staphylococcus aureus, UniProt Q2FV99); type: biochemical, staphylococcal
[7] = system: surface protein SEB-SPA490-524 (sortase acyl-enzyme intermediates); type: cell-based, S. aureus
[8] = system: surface protein SEB-MH6-CWS; type: cell-based, S. aureus OS2 and BB270
[9] = system: cell wall sorting of Seb-Spa490-524; type: cell-based, S. aureus OS2
[10] = system: staphylococci; assay: Growth of staphylococci in the presence of antibiotics; type: cell-based, S. aureus OS2
[11] = system: bacterial cell wall synthesis; type: cell-based, S. aureus

Which “cleavage of sorting signals at the LPXTG motif (cell wall sorting reaction)” value (shortened to “cleavage of sorting signals”) [1] does the source give for O[C@H](CS)[C@H](O)CS (racemic) [dithiothreitol] here?
Its value is “did not affect the sorting reaction”.

And the “LPXTG peptide cleavage activity restored” value ([2]; MTSET-inactivated SrtADN incubated with 10 mM DTT)?
Its value is 80%.

And the “SrtB-mediated cleavage of NPQTN peptide” value ([3]; addition of DTT, even in the presence of MTSET)?
Its value is “greatly stimulated SrtB-mediated cleavage”.

Which “cleavage of sorting signals” value [1] does the source give for O=C(O)CN(CCN(CC(=O)O)CC(=O)O)CC(=O)O [EDTA] here?
The value was “Neither PMSF, which reacts with hydroxyl (Creighton, 1993), nor treatment with the divalent cation chelator EDTA interfered with cell wall sorting”.

CS(=O)(=O)SCCS(=O)(=O)[O-].[Na+] [MTSES] was tested. Which “cleavage of sorting signals” value [1] did it give?
The value was “interfered with sorting albeit not as effectively as MTSET”.

What does the source list for C[N+](C)(C)CCSS(C)(=O)=O [MTSET, [2-(trimethylammonium)ethyl]methanethiosulfonate]?
cleavage of sorting signals at the LPXTG motif (cell wall sorting reaction) [1]: sensitive; also recorded: interfered with the cleavage of sorting signals at the LPXTG motif; Sec-dependent export of P1 precursor [4]: remained unaltered; incorporation of [35S]methionine by staphylococci [5]: prevented incorporation; hydroxylaminolysis of LPXTG peptide ([6]; pre-incubation of staphylococcal extracts with MTSET): inhibited; hydroxylaminolysis of LPXTG peptide by SrtADN ([2]; pre-incubation with MTSET): abolished all enzymatic activity; SrtBΔN cleavage of NPQTN peptides [3]: inhibited

CCN1C(=O)C=CC1=O [N-ethylmaleimide] was tested. Which “cleavage of sorting signals” value [1] did it give?
Its value is “did not”.

Which results are given for NO [NH2OH, hydroxylamine]?
amounts of released surface proteins [7]: increased amounts of released surface proteins; surface proteins released into the extra-cellular medium [7]: 16.9% and 12.7%; release of SEB-MH6-CWS [8]: caused the release of SEB-MH6-CWS; fluorescence intensity (LPXTG peptide cleavage) ([6]; 0.1 M NH2OH added to staphylococcal extracts): forty fold increase in fluorescence intensity

How did the “cleavage of sorting signals” value [1] turn out when O=S(=O)(F)Cc1ccccc1 [PMSF] was run?
The value was “Neither PMSF, which reacts with hydroxyl (Creighton, 1993), nor treatment with the divalent cation chelator EDTA interfered with cell wall sorting”.

For NC(=O)CI [iodoacetamide], which “cleavage of sorting signals” value [1] is on record?
Its value is “did not”.

For O=C(O)CI [iodoacetate], which “cleavage of sorting signals” value [1] is on record?
The value was “did not”.

How did the “cleavage of sorting signals” value [1] turn out when OCCS [mercaptoethanol] was run?
The value was “did not affect the sorting reaction”.

For CSS(C)(=O)=O [methylmethane thiosulfonate], which “peptide bond hydrolysis / cleavage of LPETG peptide” value ([2]; SrtA DN, absence of the peptidoglycan substrate) is on record?
Its value is “inhibited”.

For O=C(O)c1cc[c]([Hg][OH])cc1 [pHMB, p-hydroxymercuribenzoic acid], which “cleavage of sorting signals” value [1] is on record?
The value was “chemical inhibitors of the sorting reaction; also recorded: displayed an inhibitory effect”.

What about the “SrtAΔN cleavage of LPXTG containing peptides” value ([2]; incubation of purified enzyme with inhibitor) of the same compound?
Its value is “inhibited”.

What about the “SrtBΔN cleavage of NPQTN peptides” value [3] of the same compound?
The value was “inhibited”.

CC1(C)S[C@@H]2[C@H](NC(=O)Cc3ccccc3)C(=O)N2[C@H]1C(=O)O [penicillin, penicillin G] was tested. Which “rate of cell wall sorting (P2 precursor accumulation)” value [9] did it give?
The value was “did not alter the rate of cell wall sorting”.

What about the “growth rate of staphylococci” value [10] of the same compound?
Its value is “reduced the growth rate”.

What does the source list for CN[C@H](CC(C)C)C(=O)N[C@H]1C(=O)N[C@@H](CC(N)=O)C(=O)N[C@H]2C(=O)N[C@H]3C(=O)N[C@H](C(=O)N[C@H](C(=O)O)c4cc(O)cc(O)c4-c4cc3ccc4O)[C@H](O)c3ccc(c(Cl)c3)Oc3cc2cc(c3O[C@@H]2O[C@H](CO)[C@@H](O)[C@H](O)[C@H]2O[C@H]2C[C@](C)(N)[C@H](O)[C@H](C)O2)Oc2ccc(cc2Cl)[C@H]1O [vancomycin]?
rate of cell wall sorting (P2 precursor accumulation) [9]: steady accumulation of P2 precursor; inhibition of cell wall synthesis [11]: 20 fold; ratio of incorporated [3H]lysine/[3H]leucine [11]: 1.5; growth rate of staphylococci [10]: reduced the growth rate

Which results are given for moenomycin?
rate of cell wall sorting (P2 precursor accumulation) [9]: similar, albeit weaker effect; growth rate of staphylococci ([10]; 10 μg/ml antibiotic, compared to mock treated control): reduced the growth rate

— patent US20060073530A1 (priority 2001, published 2006)
